# Laboratory results reported in patent US20200255367A1, “Diesters for Personal Care Applications Derived from 1-Methylheptyl Alcohol” (Inolex Investment Corporation, priority 2016, published 2020).
# Legend:
# [1] = Kinematic viscosity at 25° C., ASTM method; format: physicochemical
# Procedure: Kinematic viscosity was tested at 25° C. using ASTM (American Society of Testing and Materials, West Conshohocken, Pa., USA) official method number D-44515a.
# [2] = Acid value (AV), ASTM method; format: physicochemical
# Procedure: Acid value (AV) was measured using ASTM official method number D-974-1 ? .
# Color, ASTM D-1209 = format: physicochemical
# Procedure: Color was measured using ASTM D-1209-05(2001 reapproved), and flash point was determined using ASTM D-92-12b.
# [3] = Moisture content by Karl-Fischer; format: physicochemical
# Procedure: Moisture content (% HOH) was measured using an automatic volumetric Karl-Fischer device, the Aquastar AQV21 (Gibbstown, N.J., USA.)
# [4] = 60° C.; cited from earlier work
Structure (SMILES),Kinematic Viscosity [1],Acid value [2],"Color (Color, ASTM D-1209)",Moisture [3],alkaline hydrolysis rate constant (kOH) [4]
CCCCCCC(=O)OCC(C)(C)COC(=O)CCCCCC [neopentyl glycol diheptanoate],7.2 cSt,0.05 mg KOH/g,17 APHA,0.01 wt. %,
CCCCCCC(C)OC(=O)CCC(=O)OC(C)CCCCCC (stereo not shown) [bis(1-methylheptyl) butanedioate],12.0 cSt,0.01 mg KOH/g,12 APHA,0.01 wt. %,
CC(C)OC(=O)c1ccccc1 [isopropyl benzoate],,,,,0.0533 M⁻¹ s⁻¹
CCOC(=O)c1ccccc1 [ethyl benzoate],,,,,0.258 M⁻¹ s⁻¹
